# ChEMBL document CHEMBL5131513, “Protein S-Nitrosation: Biochemistry, Identification, Molecular Mechanisms, and Therapeutic Applications” (J Med Chem, 2022)
# pIC50: −log10 of the molar value.
# Test system: not listed separately
# Assay: Inhibition of human GSNOR
# Conditions: not given
row,Compound,pIC50
1,Cc1cc(S(N)(=O)=O)ccc1-n1c(CCC(=O)O)ccc1-c1ccc(-n2ccnc2C)s1,7.66
2,Cc1cc(C(N)=O)ccc1-n1c(CCC(=O)O)ccc1-c1ccc(Br)cc1,7.15
3,O=C(O)c1ccc(C#Cc2ccc(O)cc2Cl)c(CCCn2cnnn2)c1,> 7.30
4,NC(=O)c1ccc(-c2cc(C(=O)O)ccc2C#Cc2ccc(O)cc2Cl)cc1,> 7.30
5,CCOc1cc([C@@H]2NC(=O)NC(c3cccnc3)=C2c2ccsc2)cc(C(=O)O)c1O,> 7.00
6,Cc1cc(NS(C)(=O)=O)ccc1-n1c(CCC(=O)O)ccc1-c1ccc(-n2ccnc2)cc1,7.54
7,Cc1nccn1-c1ccc(-c2ccc(CCC(=O)O)n2-c2ccc(O)cc2)s1,7.44
8,Cc1cc(NS(C)(=O)=O)ccc1-n1c(CCC(=O)O)ccc1-c1ccc(-n2ccnc2C)s1,7.37
9,O=C(O)CCc1ccc(-c2ccc(-n3ccnc3)cc2)n1-c1ccc(O)cc1,7.41
10,Cc1nccn1-c1ccc(-c2ccc(CCC(=O)O)n2-c2ccc(S(N)(=O)=O)cc2)s1,7.64

# Second part, the molecule after the results:
row,pIC50,Compound
1,7.26,Cc1cc(C(N)=O)ccc1-n1c(CCC(=O)O)ccc1-c1ccc(Cl)cc1O
2,> 7.30,Cc1cc(-n2ccnc2)ccc1-c1cc2sc(C(=O)O)cc2n1-c1ccc(C(N)=O)c(OCC(C)C)c1
3,7.25,COc1cc(Cl)ccc1-c1ccc(CCC(=O)O)n1-c1ccc(C(N)=O)cc1C

# Test system: not listed separately
# Assay: Inhibition of recombinant nNOS (1 to 299 residues) (unknown origin)/biotin-tagged PSD95 (unknown origin) protein-protein interaction by DELFIA
# Parameters: species or system Homo sapiens
# Conditions: not given
row,Compound,pIC50
1,Oc1c(Cl)cc(Cl)cc1CNc1ccc2nn[nH]c2c1,4.51

# Test system: not listed separately
# Assay: Inhibition of NMDA-induced nNOS/PSD95 in rat cortical neurons preincubated for 30 mins followed by NMDA addition in presence of glutamate/glycine measured after 24 hrs by immunoprecipitation assay
# Assay type: cell-based
# Conditions: cortical neuron
row,Compound,pIC50
1,O=C(O)c1ccc(NCc2cc(Cl)cc(Cl)c2O)cc1O,7.09
2,O=C(O)c1ccc(NCc2cc(Cl)ccc2O)cc1O,4.40
3,O=C(O)c1ccc(NCCc2cc(Cl)cc(Cl)c2O)cc1O,3.22
4,O=C(O)c1cc(NCc2cc(Cl)cc(Cl)c2O)ccc1O,3.06

# Other lines, results leading:
row,pIC50,Compound
1,4.99,O=C(O)c1ccc(NCc2cc(Br)ccc2O)cc1O
2,6.06,O=C(O)c1ccc(NCc2cc(F)ccc2O)cc1O
3,4.95,COC(=O)c1ccc(NCc2cc(Cl)cc(Cl)c2O)cc1O

# Species on record: Homo sapiens
# Assay: Inhibition of nNOS (unknown origin)/CAPON (unknown origin) protein-protein interaction assessed as residual activity by coimmunoprecipitation assay relative to control
# Parameters: concentration or dose not given beside the values
# Conditions: not given
row,Compound,Activity [%]
1,COC(=O)CC(=O)N[C@@H](C(=O)OC)C(C)C,26.3
2,COC(=O)CCC(=O)N[C@@H](C(=O)OC)C(C)C,61.8
3,COC(=O)[C@@H](Cc1ccccc1)NC(=O)CC(=O)O,76.6
4,COC(=O)[C@H](NCCC(=O)O)C(C)C,87.8
5,COC(=O)[C@H](NC(=O)CC(=O)O)C(C)C,30.5
6,COC(=O)[C@@H](NC(=O)CC(=O)O)C(C)C,37.5
7,COC(=O)[C@H](NC(=O)Cc1nnn[nH]1)C(C)C,49.4
8,CC(C)[C@@H](NC(=O)CC(=O)O)C(=O)O,75
